Where two headings read alike, the source gives them in different places.
Assays:
red blood cells = details: cited from earlier work
[1] = system: Bacillus subtilis ATCC 6633; test: MIC testing by the microdilution method; format: cell-based; details: microdilution, overnight 37 °C, tested 5000 to 5 μg mL^–1
Method: (§1) Following bacterial strains were used for antimicrobial susceptibility testing: Escherichia coli ATCC 25922, Staphylococcus aureus ATCC 29213, Bacillus subtilis ATCC 6633, and Enterococcus faecalis ATCC 19433, which were obtained from the American Type Culture Collection (ATCC, Virginia, USA).
(§2) The MIC is the lowest concentration of a substance that leads to a clearly visible growth inhibition after a defined incubation period. To evaluate the MIC of Arg-DT, Arg-OL, BAC, and cetrimide, a microdilution test was performed according to the guidelines of the Clinical and Laboratory Standards Institute.[19] First of all, similarly, as for the disk diffusion test, microorganisms were dissolved in saline and set to a 0.5 McFarland standard turbidity. This corresponds to a bacterial concentration of 1.5 × 10^8 colony-forming units per milliliter (CFU mL^–1); 50 μL of the bacterial suspension was added to 10 mL of Mueller Hinton Bouillon (MHB, Becton Dickinson, New Jersey, USA). The stock solutions were prepared as follows: the test compounds Arg-OL, Arg-DT, BAC, and cetrimide were dissolved in water with 10% (v/v) DMSO at a concentration of 10 mg mL^–1. The obtained solutions were used to prepare serial dilutions. The tested concentration for each substance ranged from 5000 to 5 μg mL^–1. Each test sample was added to a flat-bottomed tissue plate well in the volume of 75 μL. The first well of the tissue plate containing 75 μL of water with 10% (v/v) DMSO instead of any test sample was used as a positive control. Finally, 75 μL of the bacterial suspension was added to each well, and the plates were incubated at 37 °C overnight.
(§3) Before measuring the optical density (OD), plates were shaken for 15 min at 250 rpm. The OD was measured using the Bio-Rad 680 microplate reader (Hercules, California, USA) at a wavelength of 490 nm. Inhibition of bacterial growth was defined as a reduction of growth for at least 5 log units. Experiments were performed three times under analogous conditions for each bacterial strain and each tested sample.

[2] = system: Enterococcus faecalis ATCC 19433; test: MIC testing by the microdilution method; format: cell-based; details: microdilution, overnight 37 °C, tested 5000 to 5 μg mL^–1
Method: as §1, §2, §3

[3] = system: Escherichia coli ATCC 25922; test: MIC testing by the microdilution method; format: cell-based; details: microdilution, overnight 37 °C, tested 5000 to 5 μg mL^–1
Method: as §1, §2, §3

[4] = system: Staphylococcus aureus ATCC 29213; test: MIC testing by the microdilution method; format: cell-based; details: microdilution, overnight 37 °C, tested 5000 to 5 μg mL^–1
Method: as §1, §2, §3

Caco-2 cells = test: resazurin assay, cytotoxicity; format: cell-based; details: Caco-2, 4 h incubation; for EC50 (concentration causing 50% cell death): calculated from cell viability data
Method: The resazurin assay was used to determine the cytotoxic potential of Arg-esters according to a previous method with some minor modifications.[15] Caco-2 cells were seeded in a 24-well cell culture plate at 25 000 cells per well density and kept in an incubator at 37 °C under a 95% relative humidity environment and 5% CO2 level. Minimum essential medium (MEM) supplemented with streptomycin (0.1 mg […]), penicillin (100 units […]), and fetal calf serum (FCS) 10% (v/v) was used for growing cells. During a growth period of 14 days, the medium was replaced every other day. On the day of the experiment, test solutions of Arg-OL and Arg-DT esters were prepared in 25 mM HBS (HEPES buffered saline) buffer (pH 7.4) in the concentration range of 1000–3000 μg mL^–1. For comparison, the same concentrations of BAC and cetrimide were also prepared in HBS. HBS without any addition was used as a positive control, and Triton X-100 (2%, v/v) in HBS was used as a negative control. The growth medium from all wells of the cell culture plate was removed, and cells were washed three times with HBS preheated at 37 °C. Each test solution and controls were then added to individual wells in a volume of 500 μL, and the cell culture plate was incubated under the same conditions. After 4 h, the solution from each well was removed, and cells were washed with HBS (pH 7.4) preheated at 37 °C. Then, 500 μL of resazurin (2.2 mM) per well was added and incubated for further 3 h under the same conditions. Afterward, the fluorescence of the supernatant from each well was measured at the excitation wavelength of 540 nm and an emission wavelength of 590 nm. Cell viability was calculated by the equation: [drawing 4]

[5] = system: Bacillus subtilis ATCC 6633; test: disk diffusion method; format: cell-based; details: test solution 10 mg mL^–1, disks about 6 mm, overnight 37 °C
Method: as §1
(§4) The disk diffusion method was used for the initial assessment of the antimicrobial activity of Arg-esters. Mueller Hinton agar (MHA, Biomerieux) medium was prepared according to the manufacturer protocol and poured into Petri dishes. All testing microorganisms were dissolved in saline and set to a 0.5 McFarland standard turbidity. This corresponds to a bacterial concentration of 1.5 × 10^8 colony-forming units per milliliter (CFU mL^–1). The bacterial suspension was then swabbed over solidified MHA Petri dishes ensuring homogeneous distribution. The test solutions of Arg-OL, Arg-DT, BAC, and cetrimide were prepared in water with 10% (v/v) DMSO at a concentration of 10 mg mL^–1. Water with 10% (v/v) DMSO was used as a negative control. The diffusion disks of about 6 mm in diameter were prepared from Whatman filter paper. After immersing disks in the above-prepared test solutions, they were placed on MHA plates already swabbed with different bacteria. After overnight incubation of Petri dishes at 37 °C, clear zones of bacterial growth inhibition around disks were measured.

[6] = system: Enterococcus faecalis ATCC 19433; test: disk diffusion method; format: cell-based; details: test solution 10 mg mL^–1, disks about 6 mm, overnight 37 °C
Method: as §1, §4

[7] = system: Escherichia coli ATCC 25922; test: disk diffusion method; format: cell-based; details: test solution 10 mg mL^–1, disks about 6 mm, overnight 37 °C
Method: as §1, §4

[8] = system: Staphylococcus aureus ATCC 29213; test: disk diffusion method; format: cell-based; details: test solution 10 mg mL^–1, disks about 6 mm, overnight 37 °C
Method: as §1, §4

[9] = octanol/water partition coefficient (log P) by TNBS assay; format: physicochemical; details: octanol/water mixture 1:1 v/v; mean, n = 3
Method: Log P of Arg and both Arg-esters were determined using an already described method.[15] Each compound was dissolved in an octanol/water mixture (1:1, v/v). Afterward, octanol and water phases were separated by a high-speed mini centrifuge (Fisher Scientific, Illinois USA), and the concentration of each compound in each phase was determined by the TNBS assay. For this, a 50 μL volume from each phase was diluted 10 times with 0.1 M sodium bicarbonate (pH 8.5) containing 40% (v/v) isopropyl alcohol. After dilution, 250 μL of the TNBS reagent (0.01%, v/v) prepared in 0.1 M sodium bicarbonate (pH 8.5) was added to each sample that was incubated at 37 °C. After 2 h, the reaction was stopped by adding 250 μL of 10% (m/v) SDS and 125 μL of 1 M HCl. The absorbance of each sample was measured at 335 nm using a Spark multifunctional microplate reader (Tecan Austria, GmbH). The logarithm of the octanol/water absorbance ratio was expressed as log P for each sample.

E. coli = details: against E. coli; cited from earlier work
red blood cells (RBC) = test: hemolysis study; format: cell-based; details: human RBC, 1 h, 37 °C, PBS pH 7.4
Method: The hemolysis test was performed with red blood cells (RBC) to evaluate the potential toxic effect of Arg-surfactants on human cells.[18] Human RBC concentrate was kindly donated by the Tirol Kliniken GmbH, Innsbruck, Austria, and stored at 4 °C until use. RBC concentrate (0.556 mL) was freshly diluted by adding sterile Dulbecco’s PBS (pH 7.4) (1.944 mL) before the test to obtain an equivalent amount of whole blood (EWB). Then EWB was 50 times diluted in sterile Dulbecco’s PBS (pH 7.4). The diluted blood on visual inspection was turbid and settled down upon leaving undisturbed, indicating no cell lysis. Arg-surfactant stock solutions were prepared in the concentration range of 10–5000 μg mL^–1 in PBS. For comparison, BAC and cetrimide solutions were prepared in the same concentration range in PBS. For the assay, 10 μL of each test sample was mixed with 190 μL of diluted blood, resulting in the testing final concentrations of 0.5–250 μg mL^–1. For the positive control, 10 μL of 20% v/v Triton X-100 and, for the negative control, 10 μL of sterile Dulbecco’s PBS were mixed with 190 μL of diluted blood. All samples and controls were incubated for 1 h at 37 °C with shaking. After centrifugation at 10 000 rpm for 60 s, aliquots of 100 μL were withdrawn from the supernatants and transferred to a 96-well plate. Absorbance was measured at a wavelength of 420 nm. The extent of hemolysis as a percentage was determined by using the following equation: [drawing 6]

Row | Compound | minimum inhibitory concentration [1] [μg mL^–1] | minimum inhibitory concentration [2] [μg mL^–1] | minimum inhibitory concentration [3] [μg mL^–1] | minimum inhibitory concentration [4] [μg mL^–1] | EC50 (concentration causing 50% cell death) (Caco-2 cells) [μg mL^–1] | zones of inhibition [5] [mm] | zones of inhibition [6] [mm] | zones of inhibition [7] [mm] | zones of inhibition [8] [mm] | other results
1 | CCCCCC(=O)N[C@@H](CCCNC(=N)N)C(=O)OC [CAM, caproyl arginine methyl ester] | – | – | – | – | – | – | – | – | – | HC50 (red blood cells; reported in the literature): 38.5 μg mL^–1
2 | benzalkonium chloride [BAC, reference compound] | 5 | 5 | 10 | 5 | 20 | 23 | 20 | 19 | 21 | –
3 | N=C(N)NCCC[C@H](N)C(=O)O [arginine, L-Arginine] | – | – | – | – | – | – | – | – | – | logP [9]: -1.9
4 | CCCCCCCC(=O)N[C@@H](CCCNC(=N)N)C(=O)OCC [Nα-octanoyl arginine ethyl ester] | – | – | – | – | – | – | – | – | – | MIC (not effective at the highest tested concentration) (E. coli): > 256 μg mL^–1
5 | cetrimide [reference compound] | 5 | 5 | 20 | 5 | 20 | 19 | 19 | 12 | 19 | HC50 (concentration causing lysis of 50% red blood cells) (red blood cells (RBC)): 23 μg mL^–1; cell viability (Caco-2 cells; all tested concentrations (1000–3000 μg mL^–1)): < 10%
6 | CCCCCCCCCCCC(=O)N[C@@H](CCCNC(=N)N)C(=O)OC [LAM, lauroyl arginine methyl ester] | – | – | – | – | – | – | – | – | – | MIC (E. coli): 128 μg mL^–1; HC50 (red blood cells): 20.8 μg mL^–1

Reference: publication PMC7467771, “Lipophilic Arginine Esters: The Gateway to Preservatives without Side Effects” (Molecular Pharmaceutics, 2020)
